Values joined by “and” are separate entries in the source; they are usually repeats but may differ in a detail not shown here. Equal entries are not always repeated.
Molecular target: T1, rat α1B+α2b+β1b channels (Rattus norvegicus, UniProt Q02294)
T1 construct: expressed in transfected cells
Assay: N-type calcium channel blocking activity, whole cell patch recordings
Format: cell-based
Conditions: N-type calcium channels expressed in human embryonic kidney cells; 5 mM barium as charge carrier
Experimental: Antagonist activity was measured using whole cell patch recordings on human embryonic kidney cells either stably or transiently expressing rat α1B+α2b+β1b channels with 5 mM barium as a charge carrier.
For transient expression, host cells, such as human embryonic kidney cells, HEK 293 (ATCC# CRL 1573) are grown in standard DMEM medium supplemented with 2 mM glutamine and 10% fetal bovine serum. HEK 293 cells are transfected by a standard calcium-phosphate-DNA coprecipitation method using the rat α1B+β1b+α2δ N-type calcium channel subunits in a vertebrate expression vector (for example, see Current Protocols in Molecular Biology).
After an incubation period of from 24 to 72 hrs the culture medium is removed and replaced with external recording solution (see below). Whole cell patch clamp experiments are performed using an Axopatch 200B amplifier (Axon Instruments, Burlingame, Calif.) linked to an IBM compatible personal computer equipped with pCLAMP software. Borosilicate glass patch pipettes (Sutter Instrument Co., Novato, Calif.) were polished (Microforge, Narishige, Japan) to a resistance of about 4 MΩ when filled with cesium methanesulfonate internal solution (composition in MM: 109 CsCH3SO4, 4 MgCl2, 9 EGTA, 9 HEPES, pH 7.2). Cells were bathed in 5 mM Ba^++ (in mM: 5 BaCl2, 1 MgCl2, 10 HEPES, 40 tetraethylammonium chloride, 10 glucose, 87.5 CsCl pH 7.2). Current data shown were elicited by a train of 100 ms test pulses at 0.066 Hz from −100 mV and/or −80 mV to various potentials (min. −20 mV, max. +30 mV). Drugs were perfused directly into the vicinity of the cells using a microperfusion system.
Normalized dose-response curves were fit (Sigmaplot 4.0, SPSS Inc., Chicago, Ill.) by the Hill equation to determine IC50 values. Steady-state inactivation curves were plotted as the normalized test pulse amplitude following 5 s inactivating prepulses at +10 mV increments. Inactivation curves were fit (Sigmaplot 4.0) with the Boltzman equation, Ipeak (normalized)=1/(1+exp((V-Vh)z/25.6)), where V and Vh are the conditioning and half inactivation potentials, respectively, and z is the slope factor. […]

T1 sequence (Q02294 whole entry): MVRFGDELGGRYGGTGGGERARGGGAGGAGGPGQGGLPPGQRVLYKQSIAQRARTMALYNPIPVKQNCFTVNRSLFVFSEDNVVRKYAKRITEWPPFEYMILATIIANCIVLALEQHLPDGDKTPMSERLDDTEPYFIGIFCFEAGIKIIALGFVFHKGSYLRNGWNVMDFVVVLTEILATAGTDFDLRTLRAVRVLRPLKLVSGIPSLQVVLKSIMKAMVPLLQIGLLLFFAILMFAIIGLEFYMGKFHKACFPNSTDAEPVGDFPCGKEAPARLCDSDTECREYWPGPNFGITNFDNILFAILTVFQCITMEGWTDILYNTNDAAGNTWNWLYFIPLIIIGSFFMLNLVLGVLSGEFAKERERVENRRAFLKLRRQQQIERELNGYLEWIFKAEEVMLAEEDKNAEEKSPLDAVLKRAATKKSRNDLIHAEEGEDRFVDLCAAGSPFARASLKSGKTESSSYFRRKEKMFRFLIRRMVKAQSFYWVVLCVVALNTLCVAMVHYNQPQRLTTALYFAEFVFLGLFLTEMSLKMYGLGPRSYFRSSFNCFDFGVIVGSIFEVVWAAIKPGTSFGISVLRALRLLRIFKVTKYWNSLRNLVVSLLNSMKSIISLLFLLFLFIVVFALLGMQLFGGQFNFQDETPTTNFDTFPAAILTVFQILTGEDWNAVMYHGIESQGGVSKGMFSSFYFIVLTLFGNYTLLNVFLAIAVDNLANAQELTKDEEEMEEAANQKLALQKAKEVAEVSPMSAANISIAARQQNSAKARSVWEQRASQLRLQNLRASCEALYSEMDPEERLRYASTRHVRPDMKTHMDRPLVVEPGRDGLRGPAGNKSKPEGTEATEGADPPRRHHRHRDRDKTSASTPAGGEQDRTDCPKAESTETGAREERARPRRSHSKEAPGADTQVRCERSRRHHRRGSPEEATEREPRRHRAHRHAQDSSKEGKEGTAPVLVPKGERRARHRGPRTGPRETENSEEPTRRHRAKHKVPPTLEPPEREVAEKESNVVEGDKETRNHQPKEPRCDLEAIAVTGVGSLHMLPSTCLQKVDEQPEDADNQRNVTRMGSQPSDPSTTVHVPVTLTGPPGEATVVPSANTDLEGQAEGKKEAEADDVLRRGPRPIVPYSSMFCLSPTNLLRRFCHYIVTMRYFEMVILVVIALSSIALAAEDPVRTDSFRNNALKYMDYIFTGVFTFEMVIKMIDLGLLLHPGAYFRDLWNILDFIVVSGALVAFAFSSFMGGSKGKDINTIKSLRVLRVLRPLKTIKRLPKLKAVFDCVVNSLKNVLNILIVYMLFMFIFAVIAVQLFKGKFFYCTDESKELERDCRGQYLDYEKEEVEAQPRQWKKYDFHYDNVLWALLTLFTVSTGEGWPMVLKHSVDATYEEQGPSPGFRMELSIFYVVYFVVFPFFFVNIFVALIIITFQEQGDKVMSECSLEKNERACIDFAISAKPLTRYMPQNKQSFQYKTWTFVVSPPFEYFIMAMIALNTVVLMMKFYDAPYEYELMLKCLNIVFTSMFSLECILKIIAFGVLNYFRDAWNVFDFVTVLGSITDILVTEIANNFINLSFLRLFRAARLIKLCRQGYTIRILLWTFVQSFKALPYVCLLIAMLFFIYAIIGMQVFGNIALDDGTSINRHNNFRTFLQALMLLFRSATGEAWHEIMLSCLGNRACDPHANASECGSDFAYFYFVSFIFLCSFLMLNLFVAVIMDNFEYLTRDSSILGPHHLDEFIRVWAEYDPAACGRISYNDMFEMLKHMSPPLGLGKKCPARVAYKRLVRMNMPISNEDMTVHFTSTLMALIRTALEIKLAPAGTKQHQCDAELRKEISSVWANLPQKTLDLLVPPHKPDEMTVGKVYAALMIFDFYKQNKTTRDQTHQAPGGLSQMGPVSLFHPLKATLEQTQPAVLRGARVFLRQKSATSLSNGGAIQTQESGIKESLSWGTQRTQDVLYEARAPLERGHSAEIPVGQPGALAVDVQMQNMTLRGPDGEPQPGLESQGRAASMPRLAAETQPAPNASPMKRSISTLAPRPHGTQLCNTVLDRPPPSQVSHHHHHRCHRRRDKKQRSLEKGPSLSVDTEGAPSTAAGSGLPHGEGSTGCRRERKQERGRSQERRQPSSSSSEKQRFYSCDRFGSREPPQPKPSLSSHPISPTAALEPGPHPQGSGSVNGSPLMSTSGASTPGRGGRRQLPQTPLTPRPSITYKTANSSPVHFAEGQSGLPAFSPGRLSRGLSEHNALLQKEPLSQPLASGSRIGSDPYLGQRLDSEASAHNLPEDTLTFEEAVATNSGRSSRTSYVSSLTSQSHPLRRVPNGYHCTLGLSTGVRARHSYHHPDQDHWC
T1 sequence (P54290 25-944 partner limits assumed): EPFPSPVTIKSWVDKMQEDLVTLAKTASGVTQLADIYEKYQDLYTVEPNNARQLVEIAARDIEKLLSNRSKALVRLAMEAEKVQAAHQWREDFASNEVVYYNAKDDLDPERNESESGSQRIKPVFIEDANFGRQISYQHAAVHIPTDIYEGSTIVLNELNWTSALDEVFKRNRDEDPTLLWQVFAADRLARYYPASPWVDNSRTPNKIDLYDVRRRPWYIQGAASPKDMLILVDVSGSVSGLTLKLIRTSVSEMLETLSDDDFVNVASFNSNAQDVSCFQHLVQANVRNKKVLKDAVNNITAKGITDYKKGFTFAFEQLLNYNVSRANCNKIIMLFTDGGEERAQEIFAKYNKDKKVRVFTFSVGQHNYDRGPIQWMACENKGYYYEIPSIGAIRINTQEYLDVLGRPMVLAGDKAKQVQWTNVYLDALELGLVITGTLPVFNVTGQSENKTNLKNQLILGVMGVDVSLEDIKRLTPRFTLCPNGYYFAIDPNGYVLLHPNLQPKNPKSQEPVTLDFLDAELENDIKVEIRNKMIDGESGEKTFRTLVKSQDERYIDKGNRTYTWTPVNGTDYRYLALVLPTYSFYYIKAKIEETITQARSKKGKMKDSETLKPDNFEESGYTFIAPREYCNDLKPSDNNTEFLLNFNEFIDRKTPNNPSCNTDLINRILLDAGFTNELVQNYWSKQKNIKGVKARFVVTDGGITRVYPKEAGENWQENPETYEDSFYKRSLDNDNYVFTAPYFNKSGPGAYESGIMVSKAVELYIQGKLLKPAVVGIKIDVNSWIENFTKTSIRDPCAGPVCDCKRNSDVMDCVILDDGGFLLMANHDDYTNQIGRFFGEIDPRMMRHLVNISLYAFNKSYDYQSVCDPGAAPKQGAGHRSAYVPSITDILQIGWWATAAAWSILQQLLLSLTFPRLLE
T1 sequence (P54290 945-1091 partner limits assumed): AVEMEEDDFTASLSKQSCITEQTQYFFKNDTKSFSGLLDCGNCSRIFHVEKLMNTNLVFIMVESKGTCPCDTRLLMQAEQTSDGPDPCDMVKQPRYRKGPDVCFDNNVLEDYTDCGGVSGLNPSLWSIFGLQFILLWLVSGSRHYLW
T1 sequence (P54283 whole entry partner): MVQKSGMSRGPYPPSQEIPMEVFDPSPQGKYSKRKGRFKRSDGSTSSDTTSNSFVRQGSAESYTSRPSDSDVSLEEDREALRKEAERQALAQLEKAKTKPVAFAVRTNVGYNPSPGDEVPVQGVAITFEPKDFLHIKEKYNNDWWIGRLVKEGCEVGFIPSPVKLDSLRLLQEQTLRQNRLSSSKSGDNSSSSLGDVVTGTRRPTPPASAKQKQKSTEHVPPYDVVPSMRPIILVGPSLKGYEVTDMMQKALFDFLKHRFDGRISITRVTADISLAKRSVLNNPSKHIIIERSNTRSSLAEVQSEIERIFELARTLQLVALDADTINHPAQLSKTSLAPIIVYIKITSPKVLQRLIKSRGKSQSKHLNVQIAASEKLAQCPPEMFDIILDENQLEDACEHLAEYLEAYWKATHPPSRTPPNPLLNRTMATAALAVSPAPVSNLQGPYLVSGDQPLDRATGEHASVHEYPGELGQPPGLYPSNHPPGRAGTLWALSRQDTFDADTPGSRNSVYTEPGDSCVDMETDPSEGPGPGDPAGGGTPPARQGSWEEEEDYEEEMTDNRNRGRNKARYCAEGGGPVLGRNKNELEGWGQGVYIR

IC50	Compound
14.2 µM	O=C(C(C1CCCCC1)C1CCCCC1)N1CCN(Cc2ccccc2)CC1 [Ya=c-hex, c-hex; X^1=CHCO; X^2=CH2; Ar=φ]
5.9 µM	C(=Cc1ccccc1)CN1CCN(CCCCCC(c2ccccc2)C2CCCCC2)CC1 (stereo not drawn)
~20 µM	O=C(C(c1ccccc1)C1CCCCC1)N1CCN(Cc2ccccc2)CC1 (stereo not drawn) [Ya=φ, c-hex; X^1=CHCO; X^2=CH2; Ar=φ]
10.2 µM	C(=Cc1ccccc1)CN1CCN(CC(C2CCCCC2)C2CCCCC2)CC1
3.2 µM	C(=Cc1ccccc1)CN1CCN(CCCCCCC(c2ccccc2)C2CCCCC2)CC1 (stereo not drawn)

Compound	IC50
O=C(C(C1CCCCC1)C1CCCCC1)N1CCN(CC=Cc2ccccc2)CC1	5.9 µM
O=C(CCCCCC(c1ccccc1)C1CCCCC1)N1CCN(CC=Cc2ccccc2)CC1 (stereo not drawn)	12.2 µM
C(=Cc1ccccc1)CN1CCN(CC(c2ccccc2)C2CCCCC2)CC1 (stereo not drawn)	10.6 µM and ~5 µM
O=C(C(c1ccccc1)C1CCCCC1)N1CCN(CC=Cc2ccccc2)CC1 (stereo not drawn)	~5 µM

— US6492375B2, “Partially saturated calcium channel blockers” (NeuroMed Technologies, Inc., priority 1998, dated 2002)
